Source: PMC11100219, “Dual-function antimicrobial-antibiofilm peptide hybrid to tackle biofilm-forming Staphylococcus epidermidis” (Annals of Clinical Microbiology and Antimicrobials, 2024)
Residues, ends and D or L forms follow the SMILES beside them.

Tests used:
[1] = test system: S. epidermidis (ATCC 35984) biofilm; assay: Biofilm-formation inhibitory activity, crystal violet staining; assay type: cell-based, Staphylococcus epidermidis; conditions: CV staining, TSB, 10^6 CFU/mL, 24 h, 37°C, 0.98-250 µg/mL
Procedure: The biofilm inhibitory activity of peptide derivatives was assessed by modified crystal violet (CV) staining. Briefly, the pellet of S. epidermidis (ATCC 35984) was collected through centrifugation of bacterial suspensions grown overnight at 2,500 × g for 5 min. Subsequently, the pellet was resuspended and diluted with TSB to a final concentration of 10^6 CFU/mL. Then, 50 µL of these diluted suspensions was transferred to 96-well microplates containing same volume of peptide derivatives in 10 mM phosphate buffer saline (PBS; Caisson Labs, USA), with concentrations ranging from 0.98 to 250 µg/mL. Vancomycin was used as positive control while TSB medium without bacteria was used as negative control. After 24 h of incubation and reaching static growth at 37°C, culture media as well as planktonic cells were removed, then the biofilm in each well was washed thrice with 0.85% NaCl. For CV staining, biofilms were fixed with 95% ethanol and stained with a 0.1% (v/v) CV solution for 15 min. After removal of excess dye, each well was washed thrice with 0.85% NaCl and resuspended in 95% ethanol to dissolve bound dye. Absorbance was determined at 570 nm using a Multiskan SkyHigh microplate reader (Thermo Scientific™, Singapore). All experiments were done in six technical replicates and repeated independently three times. Minimum biofilm inhibitory concentrations at 50% and 90% (MBIC50 and MBIC90) refers to concentrations of the peptide at which the inhibition of biofilm was at least 50% and 90%, respectively.

[2] = test system: Acinetobacter baumanii MT strain; assay: Broth microdilution MIC / MBC; assay type: cell-based; conditions: 24 h, 37°C
Procedure: (§1) The minimal inhibitory concentrations (MICs) of peptide derivatives versus planktonic bacteria were assessed using a modification of the broth microdilution assay previously described in the National Committee for Clinical Laboratory Standards (NCCLS). In brief, bacteria at mid-logarithmic growth were collected by centrifugation at 2,500 × g for 5 min. Subsequently, the pellet was resuspended and adjusted in Mueller-Hinton Broth (MHB; BD Bacto™, USA) to an OD620 of 0.05. Fifty µL of bacterial suspensions was transferred to 96-well microplates. Later, 50 µL of peptide derivatives at 0.98–250 µg/mL in 10 mM PBS, was added to wells and incubated for 24 h at 37°C with continuous shaking at 220 rpm. […] The experiments were done in three technical replicates and repeated independently.
(§2) To determine minimal bactericidal concentrations (MBCs) of the peptides, 50 µL of supernatant from non-turbid wells was plated on TSA, and the number of colony-forming units (CFUs) was observed after 24 h of incubation at 37°C. MBC was defined as the minimum concentration of peptide at which no bacterial colony was observed on the plate.

[3] = test system: Bacillus cereus ATCC 11778; assay: Broth microdilution MIC / MBC; assay type: cell-based; conditions: 24 h, 37°C
Procedure: as §1, §2

[4] = test system: Escherichia coli ATCC 25922; assay: Broth microdilution MIC / MBC; assay type: cell-based; conditions: 24 h, 37°C
Procedure: as §1, §2

[5] = test system: Listeria monocytogenes 10403s; assay: Broth microdilution MIC / MBC; assay type: cell-based; conditions: 24 h, 37°C
Procedure: as §1, §2

[6] = test system: Pseudomonas aeruginosa ATCC 27853; assay: Broth microdilution MIC / MBC; assay type: cell-based; conditions: 24 h, 37°C
Procedure: as §1, §2

[7] = test system: Salmonella Typhimurium ATCC 13311; assay: Broth microdilution MIC / MBC; assay type: cell-based; conditions: 24 h, 37°C
Procedure: as §1, §2

[8] = test system: Staphylococcus aureus ATCC 25923; assay: Broth microdilution MIC / MBC; assay type: cell-based; conditions: 24 h, 37°C
Procedure: as §1, §2

[9] = test system: Staphylococcus epidermidis ATCC 35984; assay: Broth microdilution MIC / MBC; assay type: cell-based; conditions: 24 h, 37°C
Procedure: as §1, §2

[10] = test system: human red blood cells (hRBCs); assay: Hemolysis activity (hemoglobin release); assay type: cell-based; conditions: 1 h, 37°C
Procedure: The effect of peptides on human red blood cells (hRBCs) was assessed by observing the release of hemoglobin upon treated with peptide. Briefly, the hRBCs were obtained from healthy volunteers and subsequently diluted in 10 mM PBS to a concentration of 2% hRBCs. An equal volume of 2% hRBCs and peptide at concentration of 0.98–250 µg/mL in 10 mM PBS mixtures were incubated for 1 h at 37°C. Following incubation, the suspension was centrifuged, then supernatants were collected and transferred to 96-well microplates for measurement of absorbance at OD of 405 nm (OD405). This study was performed in accordance with the Thammasat University Ethics Committee (COA No. 066/2562). Written informed consent was obtained from all volunteers.

[11] = test system: all gram-positive bacterial strains; assay: Mean MIC and therapeutic index, gram-positive strains; assay type: cell-based; conditions: four gram-positive strains
Procedure: as §1
(§3) The therapeutic index (TI) is widely used for evaluating a peptide’s efficacy and safety. It is the ratio between the minimum hemolytic concentration (MHC, the concentration causing 10% hemolysis) and the geometric mean (GM) value of the MIC [15]. […] While, both lysine-substituted peptides (BiF2_7K and BiF2_5K7K) had higher TIs against all tested biofilm-forming bacteria than did the two parent peptides, and the TI of BiF2_5K7K was higher than that of BiF2_7K.

[12] = test system: all gram-negative bacterial strains; assay: Mean MIC and therapeutic index, gram-negative strains; assay type: cell-based; conditions: four gram-negative strains
Procedure: as §1, §3

biofilm-forming bacteria = assay: Antibacterial activity against the panel of planktonic biofilm-forming bacteria; assay type: cell-based
Procedure: The biofilm-forming bacteria, including S. epidermidis ATCC 35984, Staphylococcus aureus ATCC 25923, Bacillus cereus ATCC 11778, Listeria monocytogenes 10403s, Pseudomonas aeruginosa ATCC 27853, Salmonella Typhimurium ATCC 13311, Escherichia coli ATCC 25922 and Acinetobacter baumanii MT strain, were used. All bacterial strains were grown on tryptic soy agar (TSA; BD Bacto™, USA) except E. coli and L. monocytogenes which were cultured on Luria agar (LA) and TSA supplemented with 0.6% Yeast Extract (TSAYE), respectively, at 37°C overnight. Subsequently, isolated colonies were inoculated and cultured in 5 mL of tryptic soy broth (TSB; BD Bacto™, USA), Luria Broth (LB), or TSB supplemented with 0.6% Yeast Extract (TSBYE) at 37°C for 16–18 h.
The minimal inhibitory concentrations (MICs) of peptide derivatives versus planktonic bacteria were assessed using a modification of the broth microdilution assay previously described in the National Committee for Clinical Laboratory Standards (NCCLS). In brief, bacteria at mid-logarithmic growth were collected by centrifugation at 2,500 × g for 5 min. Subsequently, the pellet was resuspended and adjusted in Mueller-Hinton Broth (MHB; BD Bacto™, USA) to an OD620 of 0.05. Fifty µL of bacterial suspensions was transferred to 96-well microplates. […]

[13] = broth microdilution, MHB, 0.98-250 µg/mL, visible inspection
[14] = plating of non-turbid wells on TSA

CC[C@H](C)[C@H](NC(=O)[C@H](CC(C)C)NC(=O)[C@H](CCCCN)NC(=O)[C@@H](NC(=O)[C@H](CC(C)C)NC(=O)[C@@H](N)Cc1ccccc1)C(C)C)C(=O)N[C@@H](CC(C)C)C(N)=O [BiF] (H-FLVKLIL-NH2; N-terminus assumed)
MBIC50 ([1]; minimum concentration inhibiting biofilm formation more than 50%): 125 µg/mL | MBIC90 ([1]; minimum concentration inhibiting biofilm formation more than 90%): >250 µg/mL | MIC [2, 13]: > 250 µg/mL | MBC [2, 14]: > 250 µg/mL | MIC [3, 13]: > 250 µg/mL | MBC [3, 14]: > 250 µg/mL | MIC [4, 13]: > 250 µg/mL | MBC [4, 14]: > 250 µg/mL | MIC [5, 13]: > 250 µg/mL | MBC [5, 14]: > 250 µg/mL | MIC [6, 13]: > 250 µg/mL | MBC [6, 14]: > 250 µg/mL | MIC [7, 13]: > 250 µg/mL | MBC [7, 14]: > 250 µg/mL | MIC [8, 13]: > 250 µg/mL | MBC [8, 14]: > 250 µg/mL | MIC [9, 13]: > 250 µg/mL | MBC [9, 14]: > 250 µg/mL | hRBCs lysed (hemolysis) ([10]; at 31.25 µg/mL): more than 20% | hemolytic activity ([10]; at 250 µg/mL (maximum concentration tested)): 100% | MHC, minimum hemolytic concentration ([10]; peptide concentration causing 10% hemolysis of hRBCs, 2% hRBCs in 10 mM PBS, OD405): 15.63 µg/mL | GM +, geometric mean of MIC values from all gram-positive bacterial strains [11]: >250 µg/mL | GM-, geometric mean of MIC values from all gram-negative bacterial strains [12]: >250 µg/mL | antibacterial activity against target bacteria (biofilm-forming bacteria): no antibacterial activity
